Test results from the NIST ThermoML archive (doi:10.1021/acs.jced.7b00035).
“And” between values parts separate entries of the source, which are not always exact repeats. Equal values may be shown once. Numbers after ± are expanded uncertainties.

Assays:
[1] = 101.33 kPa, Liquid, Vibrating tube method
[2] = excess molar enthalpy (molar enthalpy of mixing); xn = mol fraction of the nth substance listed; conditions: 100 kPa, Liquid, Flow calorimetry
[3] = xn = mol fraction of the nth substance listed; conditions: 100 kPa, Liquid, Vibrating tube method

CC(=O)C(C)C [3-methyl-2-butanone]
[1]
Conditions	mass density [kg/m3]
288.15 K	808.3 ± 0.7
298.15 K	798.51 ± 0.7
308.15 K	788.6 ± 0.7
318.15 K	778.62 ± 0.7

CC(=O)CC(C)C [4-methylpentan-2-one]
[1]
Conditions	mass density [kg/m3]
288.15 K	805.12 ± 0.61
298.15 K	795.98 ± 0.61
308.15 K	786.75 ± 0.61
318.15 K	777.46 ± 0.61

CCCCC(C)=O [2-hexanone]
[1]
Conditions	mass density [kg/m3]
288.15 K	815.72 ± 0.78
298.15 K	806.7 ± 0.77
308.15 K	797.6 ± 0.77
318.15 K	788.45 ± 0.77

CCC(=O)CC [pentan-3-one]
[1]
Conditions	mass density [kg/m3]
288.15 K	818.9 ± 0.61
298.15 K	809.16 ± 0.61
308.15 K	799.32 ± 0.61
318.15 K	789.41 ± 0.61

CCCC(C)=O [pentan-2-one]
[1]
Conditions	mass density [kg/m3]
288.15 K	811.06 ± 0.61
298.15 K	801.41 ± 0.61
308.15 K	791.66 ± 0.61
318.15 K	781.83 ± 0.61

CCCCC(C)=O [2-hexanone] + O
Conditions	excess molar enthalpy, [2]	mass density, [3]
288.15 K, x1 = 0.00087	-0.0107 kJ/mol and -0.0106 kJ/mol	998.466 ± 0.037 kg/m3 and 998.439 ± 0.037 kg/m3
288.15 K, x1 = 0.00116	-0.0143 kJ/mol and -0.0142 kJ/mol	998.248 ± 0.057 kg/m3 and 998.255 ± 0.042 kg/m3
288.15 K, x1 = 0.00145	-0.0177 kJ/mol and -0.0176 kJ/mol	998.054 ± 0.038 kg/m3
288.15 K, x1 = 0.001739	-0.021 kJ/mol and -0.0211 kJ/mol	997.852 ± 0.039 kg/m3 and 997.853 ± 0.039 kg/m3
298.15 K, x1 = 0.000869	-0.00825 ± 0.00088 kJ/mol	996.347 ± 0.15 kg/m3
298.15 K, x1 = 0.00087	-0.00828 ± 0.00088 kJ/mol	996.364 ± 0.15 kg/m3
298.15 K, x1 = 0.001159	-0.011 ± 0.0012 kJ/mol	996.128 ± 0.11 kg/m3
298.15 K, x1 = 0.00116	-0.011 ± 0.0012 kJ/mol	996.137 ± 0.11 kg/m3
298.15 K, x1 = 0.001448	-0.0134 ± 0.0026 kJ/mol	995.926 ± 0.17 kg/m3
298.15 K, x1 = 0.00145	-0.0138 ± 0.0026 kJ/mol	995.903 ± 0.17 kg/m3
298.15 K, x1 = 0.001737	-0.0165 ± 0.0012 kJ/mol	995.664 ± 0.94 kg/m3
298.15 K, x1 = 0.00174	-0.0163 ± 0.0012 kJ/mol	995.681 ± 0.94 kg/m3
308.15 K, x1 = 0.000869	-0.00579 ± 0.00082 kJ/mol	993.309 ± 0.039 kg/m3 and 993.32 ± 0.039 kg/m3
308.15 K, x1 = 0.001158	-0.00754 ± 0.001 kJ/mol	993.074 ± 0.08 kg/m3
308.15 K, x1 = 0.001159	-0.00759 ± 0.0027 kJ/mol	993.08 ± 3.3 kg/m3
308.15 K, x1 = 0.001447	-0.00946 ± 0.0014 kJ/mol	992.84 ± 0.095 kg/m3
308.15 K, x1 = 0.001448	-0.00938 ± 0.00092 kJ/mol	992.834 ± 4 kg/m3
308.15 K, x1 = 0.001735	-0.0114 ± 0.0012 kJ/mol	992.573 ± 1.6 kg/m3
308.15 K, x1 = 0.001737	-0.0114 ± 0.0016 kJ/mol	992.571 ± 2.4 kg/m3
318.15 K, x1 = 0.000868	-0.00345 ± 0.00083 kJ/mol	989.45 ± 0.046 kg/m3
318.15 K, x1 = 0.000869	-0.00342 ± 0.00083 kJ/mol	989.446 ± 0.046 kg/m3
318.15 K, x1 = 0.00087	-0.0034 ± 0.00083 kJ/mol	989.455 ± 0.046 kg/m3
318.15 K, x1 = 0.001158	-0.0046 ± 0.0011 kJ/mol	989.173 ± 0.07 kg/m3
318.15 K, x1 = 0.001159	-0.00466 kJ/mol and -0.00454 kJ/mol	989.168 ± 0.071 kg/m3 and 989.197 ± 0.28 kg/m3
318.15 K, x1 = 0.001447	-0.00555 ± 0.0015 kJ/mol	988.934 ± 0.059 kg/m3
318.15 K, x1 = 0.001448	-0.00564 kJ/mol and -0.00552 kJ/mol	988.931 ± 0.059 kg/m3 and 988.956 ± 0.32 kg/m3
318.15 K, x1 = 0.001736	-0.00672 ± 0.0015 kJ/mol	988.678 ± 0.47 kg/m3
318.15 K, x1 = 0.001737	-0.00679 kJ/mol and -0.00692 kJ/mol	988.651 ± 0.47 kg/m3 and 988.636 ± 0.73 kg/m3
